Assay results reported in ChEMBL document CHEMBL4619778, “Oligopeptides as Neuropeptide Y Y4 Receptor Ligands: Identification of a High-Affinity Tetrapeptide Agonist and a Hexapeptide Antagonist” (J Med Chem, 2020).
Square brackets hold non-standard residues; d marks the D form. Peptide text beside a SMILES is read from it. ξ: configuration not given here. ξOrn = NCCCC(N)C(=O)O

Key:
[1] = molecular target: T1, Neuropeptide Y receptor type 4 (Homo sapiens, UniProt P50391); test: Displacement of [3H]UR-KK200 from human Y4 receptor expressed in CHO cells co-expressing Gqi5-mtAEQ measured after 90 mins by scintillation counting analysis; format: cell-based
T1 sequence (P50391 whole entry): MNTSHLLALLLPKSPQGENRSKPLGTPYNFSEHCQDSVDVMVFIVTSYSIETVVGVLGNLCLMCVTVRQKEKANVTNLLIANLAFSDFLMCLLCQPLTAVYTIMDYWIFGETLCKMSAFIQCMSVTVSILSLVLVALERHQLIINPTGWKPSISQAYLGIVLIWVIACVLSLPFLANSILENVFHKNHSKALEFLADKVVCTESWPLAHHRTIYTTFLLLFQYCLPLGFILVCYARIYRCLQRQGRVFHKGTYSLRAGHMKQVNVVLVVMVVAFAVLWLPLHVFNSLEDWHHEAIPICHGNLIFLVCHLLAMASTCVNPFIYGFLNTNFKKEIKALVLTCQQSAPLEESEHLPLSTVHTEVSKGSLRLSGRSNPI

[2] = molecular target: T1, Neuropeptide Y receptor type 4; test: Antagonist activity at human Y4R expressed in HEK293T cells co-expressing ARRB1 assessed as inhibition of hPP-induced beta-arrestin1 recruitment preincubated for 20 mins followed by hPP addition and measured for 40 mins by D-luciferin based luminescence assay; format: cell-based; conditions: HEK-293T
[3] = molecular target: T1, Neuropeptide Y receptor type 4; test: (§1) Antagonist activity at human Y4 receptor expressed in CHO cells co-expressing Gqi5-mtAEQ assessed as inhibition of hPP-induced intracellular calcium mobilization preincubated for 15 mins followed by hPP addition and measured for 43 secs in presence of coelenterazine by aequorin-reporter gene based luminescence assay; format: functional, cell-based
[4] = molecular target: T1, Neuropeptide Y receptor type 4; test: Antagonist activity at human Y4R expressed in HEK293T cells co-expressing ARRB2 assessed as inhibition of hPP-induced beta-arrestin2 recruitment preincubated for 20 mins followed by hPP addition and measured for 40 mins by D-luciferin based luminescence assay; format: cell-based; conditions: HEK-293T
[5] = molecular target: T2, Neuropeptide Y receptor type 1 (Homo sapiens, UniProt P25929); test: Displacement of [3H]UR-MK299 from Y1 receptor in human SK-N-MC cells; format: cell-based
T2 sequence (P25929 whole entry): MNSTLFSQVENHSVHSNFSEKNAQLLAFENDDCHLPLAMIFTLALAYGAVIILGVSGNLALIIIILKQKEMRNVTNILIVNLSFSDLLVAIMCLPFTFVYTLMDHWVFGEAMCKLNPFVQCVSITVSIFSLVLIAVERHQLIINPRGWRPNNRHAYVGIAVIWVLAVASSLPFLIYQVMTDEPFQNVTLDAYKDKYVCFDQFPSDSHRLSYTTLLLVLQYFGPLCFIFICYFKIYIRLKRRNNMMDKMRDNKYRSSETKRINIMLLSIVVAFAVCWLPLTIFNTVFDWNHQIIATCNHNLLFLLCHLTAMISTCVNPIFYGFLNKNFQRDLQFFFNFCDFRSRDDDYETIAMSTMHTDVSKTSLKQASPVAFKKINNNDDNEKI

Homo sapiens [6] = species: Homo sapiens; test: Selectivity ratio of Ki for displacement of [3H]propionyl-pNPY from human Y5 receptor expressed in human HEC1B cells to Ki for displacement of [3H]UR-KK200 from human Y4 receptor expressed in CHO cells co-expressing Gqi5-mtAEQ; format: cell-based
[7] = molecular target: T3, Neuropeptide Y receptor type 5 (Homo sapiens, UniProt Q15761); test: Displacement of [3H]propionyl-pNPY from human Y5 receptor expressed in human HEC1B cells; format: cell-based
T3 sequence (Q15761 whole entry): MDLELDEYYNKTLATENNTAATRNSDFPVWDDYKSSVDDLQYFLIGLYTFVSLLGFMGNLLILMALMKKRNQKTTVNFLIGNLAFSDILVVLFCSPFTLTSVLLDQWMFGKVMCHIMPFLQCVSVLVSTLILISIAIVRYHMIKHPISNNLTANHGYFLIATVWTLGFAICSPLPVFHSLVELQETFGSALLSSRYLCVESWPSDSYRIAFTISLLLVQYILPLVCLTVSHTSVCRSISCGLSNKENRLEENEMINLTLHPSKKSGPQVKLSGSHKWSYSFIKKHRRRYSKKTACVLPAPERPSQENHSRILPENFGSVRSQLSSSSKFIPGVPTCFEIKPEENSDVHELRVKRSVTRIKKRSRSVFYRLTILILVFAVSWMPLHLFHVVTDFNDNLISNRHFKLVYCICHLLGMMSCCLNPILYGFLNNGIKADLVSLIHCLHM

[8] = molecular target: T4, Neuropeptide Y receptor type 2 (Homo sapiens, UniProt P49146); test: Displacement of [3H]propionyl-pNPY from human Y2 receptor expressed in CHO cells measured after 2 hrs by microbeta liquid scintillation counting analysis; format: cell-based
T4 sequence (P49146 whole entry): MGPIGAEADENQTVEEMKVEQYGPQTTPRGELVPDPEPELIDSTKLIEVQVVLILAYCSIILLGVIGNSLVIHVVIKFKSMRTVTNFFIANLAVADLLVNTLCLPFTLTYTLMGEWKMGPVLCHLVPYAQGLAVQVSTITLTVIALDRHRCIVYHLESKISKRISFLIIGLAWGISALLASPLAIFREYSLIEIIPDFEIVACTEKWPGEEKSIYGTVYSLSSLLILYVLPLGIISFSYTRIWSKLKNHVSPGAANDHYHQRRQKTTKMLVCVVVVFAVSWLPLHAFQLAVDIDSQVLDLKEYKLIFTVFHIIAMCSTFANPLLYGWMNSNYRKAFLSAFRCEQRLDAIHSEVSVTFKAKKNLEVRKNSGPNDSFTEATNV

Homo sapiens [9] = species: Homo sapiens; test: Selectivity ratio of Ki for displacement of [3H]UR-MK299 from Y1 receptor in human SK-N-MC cells to Ki for displacement of [3H]UR-KK200 from human Y4 receptor expressed in CHO cells co-expressing Gqi5-mtAEQ; format: cell-based
Homo sapiens [10] = species: Homo sapiens; test: Selectivity ratio of Ki for displacement of [3H]propionyl-pNPY from human Y2 receptor expressed in CHO cells to Ki for displacement of [3H]UR-KK200 from human Y4 receptor expressed in CHO cells co-expressing Gqi5-mtAEQ; format: cell-based
[11] = molecular target: T1, Neuropeptide Y receptor type 4; test: Agonist activity at human Y4R expressed in HEK293T cells co-expressing ARRB1 assessed as induction of beta-arrestin1 recruitment measured for 40 mins by D-luciferin based luminescence assay; format: cell-based, HEK-293T
[12] = molecular target: T1, Neuropeptide Y receptor type 4; test: Agonist activity at human Y4 receptor expressed in CHO cells co-expressing Gqi5-mtAEQ assessed as intracellular calcium mobilization measured for 43 secs in presence of coelenterazine by aequorin-reporter gene based luminescence assay; format: functional, cell-based
[13] = molecular target: T1, Neuropeptide Y receptor type 4; test: Agonist activity at human Y4R expressed in HEK293T cells co-expressing ARRB2 assessed as induction of beta-arrestin2 recruitment measured for 40 mins by D-luciferin based luminescence assay; format: cell-based, HEK-293T
[14] = molecular target: T1, Neuropeptide Y receptor type 4; test: (§2) Antagonist activity at human Y4R expressed in HEK293T cells co-expressing ARRB1 assessed as inhibition of hPP-induced beta-arrestin1 recruitment at 10 uM preincubated for 20 mins followed by hPP addition and measured for 40 mins by D-luciferin based luminescence assay; format: cell-based; conditions: HEK-293T
[15] = molecular target: T1, Neuropeptide Y receptor type 4; test: as §1, with “mobilization at 10 uM” for “mobilization”; format: functional, cell-based
[16] = molecular target: T1, Neuropeptide Y receptor type 4; test: as §2, with “recruitment by measuring rightward shifts of hPP concentration-response curves” for “recruitment”, “assay relative to hPP” for “assay”; format: cell-based; conditions: HEK-293T
[17] = molecular target: T1, Neuropeptide Y receptor type 4; test: Antagonist activity at human Y4 receptor expressed in CHO cells co-expressing Gqi5-mtAEQ assessed as inhibition of hPP-induced intracellular calcium mobilization by measuring rightward shifts of hPP concentration-response curves at 10 uM preincubated for 15 mins followed by hPP addition and …; format: functional, cell-based

Compound	Ki ([1]; read-out: Ki) [nM]	pKb [2]	pKb [3]	pKb [4]	Ki ([5]; read-out: Ki) [nM]	Ki ([5]; read-out: pKi (converted)) [nM]	Ratio Ki (Homo sapiens [6])	Ki ([7]; read-out: Ki) [nM]	Ki ([7]; read-out: pKi (converted)) [nM]	Ki ([8]; cho, read-out: Ki) [nM]	Ki ([8]; read-out: pKi (converted)) [nM]	Ratio Ki (Homo sapiens [9])	Ratio Ki (Homo sapiens [10])	Ki ([1]; read-out: pKi (converted)) [nM]	EC50 ([11]; read-out: EC50) [nM]	Ki ([8]; read-out: Ki) [nM]	EC50 ([12]; read-out: EC50) [nM]	EC50 ([13]; read-out: EC50) [nM]	Ki ([5]; sk-n-mc, read-out: Ki) [nM]	also measured
CC(=O)N[C@@H](CCCNC(=N)N)C(=O)NC(CCCN)C(=O)N[C@@H](Cc1ccc(O)cc1)C(=O)N[C@@H](CCCNC(=N)N)C(=O)N[C@@H](Cc1c[nH]c2ccccc12)C(=O)N[C@@H](CCCNC(=N)N)C(=O)N[C@@H](Cc1ccc(O)cc1)C(N)=O (stereo not given in full) (Ac-R[ξOrn]YRWRY-NH2)	160	6.22	6.91	5.87	–	–	–	–	–	–	–	–	–	–	–	–	–	–	–	–
Ac-RGYRWRY-NH2	29	6.96	7.57	7.01	> 3000	> 3160	> 100	> 3000	> 3160	> 10000	> 10000	> 100	> 340	–	–	–	–	–	–	–
Ac-RGYRWRW-NH2	250	6.1	6.46	5.8	–	–	–	–	–	–	–	–	–	240	–	–	–	–	–	–
CC(C)C[C@H](NC(=O)[C@H](CCCNC(=N)N)NC(=O)[C@H](Cc1ccc(O)cc1)NC(=O)[C@H](CCCNC(=N)N)NC(=O)CCC(=O)O)C(=O)N[C@@H](CCCNC(=N)N)C(=O)N[C@@H](Cc1ccc(O)cc1)C(N)=O	4	–	–	–	> 300	> 316	> 2500	> 10000	> 10000	–	> 3160	> 75	> 750	–	460	> 3000	620	430	–	–
CC(C)C[C@H](NC(=O)[C@@H](N)CCCNC(=N)N)C(=O)N[C@@H](CCCNC(=N)N)C(=O)N[C@@H](Cc1ccc(O)cc1)C(N)=O	3.4	–	–	–	–	> 10000	> 2900	> 10000	> 10000	> 10000	> 10000	> 2900	> 2900	–	280	–	440	170	> 10000	–
CC(=O)N[C@@H](CCCNC(=N)N)C(=O)N[C@@H](Cc1ccc(O)cc1)C(=O)N[C@@H](CCCNC(=N)N)C(=O)N[C@@H](CC(C)C)C(=O)N[C@@H](CCCNC(=N)N)C(=O)N[C@@H](Cc1ccc(O)cc1)C(N)=O	3.4 to 3.6	–	–	–	> 3000	–	> 830	> 3000	–	–	–	> 830	> 830	3.72	170	> 3000	190	120	–	EC50 ([11]; read-out: pEC50 (converted)): 162 nM; EC50 ([12]; read-out: pEC50 (converted)): 182 nM; EC50 ([13]; read-out: pEC50 (converted)): 112 nM
Ac-RGYRLRW-NH2	38	–	–	–	–	> 1000	> 26	> 1000	> 1000	> 1000	> 1000	> 26	26	30.9	520	–	380	360	> 1000	–
H-WRLRY-NH2	1.7	–	–	–	–	> 1000	> 590	> 1000	> 1000	> 10000	> 10000	> 590	> 5900	1.62	160	–	250	140	> 1000	EC50 ([13]; read-out: pEC50 (converted)): 148 nM
Ac-RGWRLRY-NH2	2.8	–	–	–	–	> 1000	> 3600	> 10000	> 10000	–	> 3160	> 360	> 1070	–	160	> 3000	110	51	> 1000	–
Ac-RYRWRY-NH2	97	7.02	7.22	6.85	–	–	–	–	–	–	–	–	–	89.1	–	–	–	–	–	–
CC(=O)N[C@@H](CCCNC(=N)N)C(=O)N[C@@H](Cc1c[nH]c2ccccc12)C(=O)N[C@@H](CCCNC(=N)N)C(=O)N[C@@H](CC(C)C)C(=O)N[C@@H](CCCNC(=N)N)C(=O)N[C@@H](Cc1ccc(O)cc1)C(N)=O	1.4	–	–	–	–	> 1000	> 710	> 1000	> 1000	> 1000	> 1000	> 710	> 710	–	67	–	120	35	> 1000	–
H-RYRWRY-NH2	28	7.14	7.32	6.87	> 3000	> 3160	> 360	> 10000	> 10000	–	> 3160	> 110	> 110	26.9	–	> 3000	–	–	–	pKb [14]: 6.63; pKb [15]: 7.05; fold change (FC) [16]: 2; fold change (FC) [17]: 2
